Test results as given in PubChem BioAssay AID274 (DTP/NCI, 2004).
Toxic doses and inconclusive results are not listed.

System: BDF1 mice, Lewis lung carcinoma iv, survival T/C
Assay: NCI In Vivo Anticancer Drug Screen. Data for tumor model Lewis Lung Carcinoma (intravenous) in B6D2F1 (BDF1) mice
Settings: endpoint: median survival time, higher = longer survival
Description: The antitumor activity of compounds was measured in mice bearing transplantable tumors. Survival or tumor size were measured and the results are expressed as the measurement made in the treated group (T) divided by the measurement made in the vehicle treated control group (C). The tumor model used in this assay is Lewis Lung Carcinoma (intravenous) in B6D2F1 (BDF1) mice

[1] = dose: 12.5 mg/kg/injection, schedule: Q01DX009 (ip), vehicle: saline with Tween-80
[2] = dose: 25.0 mg/kg/injection, schedule: Q01DX009 (ip), vehicle: saline with Tween-80
[3] = dose: 50.0 mg/kg/injection, schedule: Q01DX009 (ip), vehicle: saline with Tween-80
[4] = dose: 100.0 mg/kg/injection, schedule: Q01DX009 (ip), vehicle: saline with Tween-80
[5] = dose: 200.0 mg/kg/injection, schedule: Q01DX009 (ip), vehicle: saline with Tween-80
[6] = dose: 400.0 mg/kg/injection, schedule: Q01DX009 (ip), vehicle: saline with Tween-80
[7] = dose: 12.5 mg/kg/injection, schedule: Q01DX009 (ip), vehicle: Klucel (hydroxypropylcellulose) (HPC)
[8] = dose: 25.0 mg/kg/injection, schedule: Q01DX009 (ip), vehicle: Klucel (hydroxypropylcellulose) (HPC)
[9] = dose: 100.0 mg/kg/injection, schedule: Q01DX009 (ip), vehicle: Klucel (hydroxypropylcellulose) (HPC)
[10] = dose: 1.0 mg/kg/injection, schedule: Q01DX009 (ip), vehicle: saline
[11] = dose: 2.0 mg/kg/injection, schedule: Q01DX009 (ip), vehicle: saline
[12] = dose: 4.0 mg/kg/injection, schedule: Q01DX009 (ip), vehicle: saline
[13] = dose: 6.25 mg/kg/injection, schedule: Q01DX009 (ip), vehicle: saline with Tween-80

Nc1ccn(C2OC(CO)C(O)C2O)c(=O)n1 (stereo not drawn)
T/C (dose: 6.25 mg/kg/injection, schedule: Q01DX009 (ip), vehicle: saline): 98 % of control
T/C (dose: 30.0 mg/kg/injection, schedule: Q01DX006 (ip), vehicle: saline): 281 % of control
T/C (dose: 60.0 mg/kg/injection, schedule: Q01DX009 (ip), vehicle: saline): 234 % of control
T/C (dose: 980.0 mg/kg/injection, schedule: Q04DX003 (ip), vehicle: saline): 121 % of control
T/C (dose: 2000.0 mg/kg/injection, schedule: Q04DX003 (ip), vehicle: saline): 93 % of control

CC(C#N)(C#N)N=Nc1ccc(Cl)cc1Cl
T/C [1]: 105 % of control
T/C [2]: 94 % of control
T/C [3]: 92 % of control
T/C [4]: 103 % of control
T/C [5]: 95 % of control
T/C [6]: 101 % of control

Cc1oc2c(C)c3oc(=O)cc(C)c3cc2c1CCl
T/C [1]: 102 % of control
T/C [2]: 101 % of control
T/C [3]: 95 % of control

Clc1ccc2nnnn2n1
T/C [1]: 102 % of control
T/C [2]: 115 % of control
T/C [3]: 104 % of control
T/C [4]: 98 % of control
T/C [5]: 108 % of control

COC1NC(=O)NC(=O)C1=[N+]=[N-] (stereo not drawn)
T/C (dose: 2.0 mg/kg/injection, schedule: Q01DX009 (ip), vehicle: water): 96 % of control
T/C (dose: 4.0 mg/kg/injection, schedule: Q01DX009 (ip), vehicle: water): 98 % of control
T/C (dose: 8.0 mg/kg/injection, schedule: Q01DX009 (ip), vehicle: water): 100 % of control

CCCCCC[C@H]([C@H](C)O)n1cnc2c(N)ncnc21
T/C (dose: 6.25 mg/kg/injection, schedule: Q01DX009 (ip), vehicle: Klucel (hydroxypropylcellulose) (HPC)): 99 % of control
T/C [7]: 104 % of control
T/C [8]: 103 % of control
T/C [9]: 96 % of control
T/C (dose: 200.0 mg/kg/injection, schedule: Q01DX009 (ip), vehicle: Klucel (hydroxypropylcellulose) (HPC)): 99 % of control

CC1(C)OC1CS(=O)c1ccccc1 (stereo not drawn)
T/C [1]: 105 % of control
T/C [2]: 99 % of control
T/C [3]: 91 % of control
T/C [4]: 96 % of control
T/C [5]: 95 % of control
T/C [6]: 114 % of control

Nc1ccccc1N
T/C [7]: 96 % of control
T/C [8]: 107 % of control
T/C (dose: 50.0 mg/kg/injection, schedule: Q01DX009 (ip), vehicle: Klucel (hydroxypropylcellulose) (HPC)): 101 % of control
T/C [9]: 91 % of control

O=C1NC(O)c2ccccc2O1 (stereo not drawn)
T/C [1]: 108 % of control
T/C [2]: 103 % of control
T/C [3]: 105 % of control
T/C [4]: 101 % of control
T/C [5]: 112 % of control
T/C [6]: 102 % of control

CN1c2ccc3ccccc3c2Sc2ccc3ccccc3c21
T/C [4]: 98 % of control
T/C [5]: 98 % of control
T/C [6]: 111 % of control

CCC(C)n1ncc2c(N(C)C)ncnc21 (stereo not drawn)
T/C (dose: 25.0 mg/kg/injection, schedule: Q01DX009 (ip), vehicle: saline): 102 % of control
T/C (dose: 50.0 mg/kg/injection, schedule: Q01DX009 (ip), vehicle: saline): 98 % of control

CN(C)C(=O)c1cccc(COc2ccc(N3C(N)=NC(N)=NC3(C)C)cc2Cl)c1
T/C (dose: 0.09 mg/kg/injection, schedule: Q01DX009 (ip), vehicle: saline): 95 % of control
T/C (dose: 0.19 mg/kg/injection, schedule: Q01DX009 (ip), vehicle: saline): 108 % of control
T/C (dose: 0.39 mg/kg/injection, schedule: Q01DX009 (ip), vehicle: saline): 95 % of control
T/C (dose: 0.78 mg/kg/injection, schedule: Q01DX009 (ip), vehicle: saline): 101 % of control
T/C (dose: 1.56 mg/kg/injection, schedule: Q01DX009 (ip), vehicle: saline): 92 % of control
T/C (dose: 3.12 mg/kg/injection, schedule: Q01DX009 (ip), vehicle: saline): 118 % of control

CC1=C(/C=C/C(C)=C/C=C/C(C)=C/CO)C(C)(C)CCC1
T/C (dose: 4.0 mg/kg/injection, schedule: Q01DX005 (ip), vehicle: saline with Tween-80): 95 % of control
T/C (dose: 8.0 mg/kg/injection, schedule: Q01DX005 (ip), vehicle: saline with Tween-80): 95 % of control
T/C (dose: 16.0 mg/kg/injection, schedule: Q01DX005 (ip), vehicle: saline with Tween-80): 95 % of control
T/C (dose: 32.0 mg/kg/injection, schedule: Q01DX005 (ip), vehicle: saline with Tween-80): 102 % of control
T/C (dose: 64.0 mg/kg/injection, schedule: Q01DX005 (ip), vehicle: saline with Tween-80): 102 % of control
T/C (dose: 128.0 mg/kg/injection, schedule: Q01DX005 (ip), vehicle: saline with Tween-80): 98 % of control

c1ccc([I+]c2ccccc2)cc1
T/C [10]: 98 % of control
T/C [11]: 100 % of control
T/C [12]: 109 % of control

COc1c2occc2cc2ccc(=O)oc12
T/C (dose: 8.0 mg/kg/injection, schedule: Q01DX009 (ip), vehicle: saline with Tween-80): 109 % of control
T/C (dose: 16.0 mg/kg/injection, schedule: Q01DX009 (ip), vehicle: saline with Tween-80): 109 % of control
T/C (dose: 32.0 mg/kg/injection, schedule: Q01DX009 (ip), vehicle: saline with Tween-80): 96 % of control
T/C (dose: 64.0 mg/kg/injection, schedule: Q01DX009 (ip), vehicle: saline with Tween-80): 113 % of control
T/C (dose: 128.0 mg/kg/injection, schedule: Q01DX009 (ip), vehicle: saline with Tween-80): 110 % of control

Cc1ccc(S(=O)(=O)NC(=O)OC23COCN2COC3)cc1
T/C [1]: 98 % of control
T/C [2]: 105 % of control
T/C [3]: 96 % of control
T/C [4]: 98 % of control
T/C [5]: 98 % of control
T/C [6]: 101 % of control

CCCCCCCCCCCC(c1ccccc1)[N+](C)(C)C (stereo not drawn)
T/C [10]: 96 % of control
T/C [11]: 105 % of control
T/C [12]: 101 % of control

O=C1C2CC(Cl)C(SSC3CC4C(=O)N(SC(Cl)(Cl)C(Cl)Cl)C(=O)C4CC3Cl)CC2C(=O)N1SC(Cl)(Cl)C(Cl)Cl (stereo not drawn)
T/C (dose: 6.0 mg/kg/injection, schedule: Q01DX009 (ip), vehicle: Klucel (hydroxypropylcellulose) (HPC)): 104 % of control
T/C (dose: 12.0 mg/kg/injection, schedule: Q01DX009 (ip), vehicle: Klucel (hydroxypropylcellulose) (HPC)): 103 % of control
T/C (dose: 24.0 mg/kg/injection, schedule: Q01DX009 (ip), vehicle: Klucel (hydroxypropylcellulose) (HPC)): 89 % of control
T/C (dose: 48.0 mg/kg/injection, schedule: Q01DX009 (ip), vehicle: Klucel (hydroxypropylcellulose) (HPC)): 93 % of control
T/C (dose: 96.0 mg/kg/injection, schedule: Q01DX009 (ip), vehicle: Klucel (hydroxypropylcellulose) (HPC)): 95 % of control

CC(=O)O[C@@H]1[C@@H](O)C2=C3[C@]4(C)[C@@H]1C(C)(C)C(=O)C[C@@H]4[C@]3(O)[C@H](OC(C)=O)[C@@]1(C[C@@H]1C)C2=O
T/C (dose: 3.12 mg/kg/injection, schedule: Q01DX009 (ip), vehicle: saline with Tween-80): 97 % of control
T/C [13]: 195 % of control
T/C [1]: 162 % of control

CN1C(=O)C(=Cc2ccc(O)cc2)C(=O)N(C)C1=O
T/C [1]: 101 % of control
T/C [2]: 105 % of control
T/C [3]: 106 % of control
T/C [4]: 99 % of control
T/C [5]: 101 % of control
T/C [6]: 96 % of control

COc1cc2oc(=O)ccc2cc1[C@@H]1OC(=O)C2(C)O[C@@H]12 (stereo partly drawn)
T/C (dose: 0.31 mg/kg/injection, schedule: Q01DX009 (ip), vehicle: water): 96 % of control
T/C (dose: 0.62 mg/kg/injection, schedule: Q01DX009 (ip), vehicle: water): 104 % of control
T/C (dose: 1.25 mg/kg/injection, schedule: Q01DX009 (ip), vehicle: water): 101 % of control
T/C (dose: 2.5 mg/kg/injection, schedule: Q01DX009 (ip), vehicle: water): 101 % of control
T/C (dose: 5.0 mg/kg/injection, schedule: Q01DX009 (ip), vehicle: water): 100 % of control

COC(=O)c1[nH]c(=O)[nH]c(=O)c1F
T/C [13]: 106 % of control
T/C [1]: 115 % of control
T/C [2]: 98 % of control

COC(=O)C(F)C(Br)C(=O)OC (stereo not drawn)
T/C (dose: 3.13 mg/kg/injection, schedule: Q01DX009 (ip), vehicle: saline with Tween-80): 95 % of control
T/C [13]: 99 % of control
T/C [1]: 95 % of control
T/C [2]: 100 % of control
T/C [3]: 104 % of control

O=C(N/N=C/c1ccccc1O)c1ccncc1
T/C (dose: 108.0 mg/kg/injection, schedule: Q01DX007 (ip), vehicle: Klucel (hydroxypropylcellulose) (HPC)): 95 % of control
T/C (dose: 154.4 mg/kg/injection, schedule: Q01DX007 (ip), vehicle: Klucel (hydroxypropylcellulose) (HPC)): 99 % of control
T/C (dose: 220.5 mg/kg/injection, schedule: Q01DX007 (ip), vehicle: Klucel (hydroxypropylcellulose) (HPC)): 89 % of control
T/C (dose: 315.0 mg/kg/injection, schedule: Q01DX007 (ip), vehicle: Klucel (hydroxypropylcellulose) (HPC)): 89 % of control
